Laboratory results taken from US8895535B2, “Pyrrolidinones as MetAP-2 inhibitors” (Merck Patent GmbH, priority 2010, dated 2014).
pIC50: −log10 of the molar value.

The compounds below were run against MetAP-2 (Homo sapiens, UniProt P50579) (assay: MetAP-2 activity measurement (coupled enzymatic reactions, substrate Met-Arg-Ser)). Details: Inhibition of MetAP-2; read-out: IC50 enzyme.
Assay type: biochemical
Protocol: MetAP-2 Activity Measurement
The MetAP-2 activity is determined by coupling enzymatic reactions. The tripeptide Met-Arg-Ser (MAS) is employed as substrate. The methionine liberated is firstly converted into Metox and H2O2 by L-aminooxidase (AAO).
MetAP-2 activity can be recorded continuously as kinetics. The reaction scheme illustrates that one mol of dianisidineox is formed per mol of methionene. The MetAP-2 enzyme activity can therefore be calculated directly as Δ absorption per time unit. […] of the MetAP-2 activity (mol of Met/time unit) is possible with the aid of the dianisidineox extinction coefficient.
The change in extinction per time unit is depicted graphically and a slope calculation is carried out in the visually linear region of the reaction.

Chain of MetAP-2 (P50579 whole entry, species assumed): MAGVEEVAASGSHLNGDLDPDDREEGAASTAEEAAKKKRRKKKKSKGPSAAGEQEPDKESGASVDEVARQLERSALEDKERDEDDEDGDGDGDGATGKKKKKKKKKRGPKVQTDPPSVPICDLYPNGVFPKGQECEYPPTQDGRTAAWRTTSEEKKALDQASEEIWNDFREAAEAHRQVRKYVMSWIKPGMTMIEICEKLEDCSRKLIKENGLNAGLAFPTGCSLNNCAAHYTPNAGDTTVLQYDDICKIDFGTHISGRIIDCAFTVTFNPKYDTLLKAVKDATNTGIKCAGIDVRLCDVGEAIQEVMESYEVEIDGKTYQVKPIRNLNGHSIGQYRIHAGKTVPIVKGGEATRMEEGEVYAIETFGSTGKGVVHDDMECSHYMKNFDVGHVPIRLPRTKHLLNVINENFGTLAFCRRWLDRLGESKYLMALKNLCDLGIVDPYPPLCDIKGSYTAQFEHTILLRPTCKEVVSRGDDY

pIC50	SMILES
6.00 to 8.00	O=C(NCc1cccc(Br)c1)[C@@]1(O)CCN(c2ccccc2)C1=O [A1]
< 5.00	CC(C)(C)c1cnc(CCNC(=O)[C@@]2(O)CCN(c3ccccc3)C2=O)o1 [A2]
5.00 to 6.00	CCc1nnn(CCNC(=O)[C@@]2(O)CCN(c3ccccc3)C2=O)n1 [A3]
5.00 to 6.00	O=C(NCc1cccc(OC(F)F)c1)[C@@]1(O)CCN(c2ccccc2)C1=O [A6]
5.00 to 6.00	O=C(NCc1cccc(OC(F)(F)F)c1)[C@@]1(O)CCN(c2ccccc2)C1=O [A8]
5.00 to 6.00	Cc1nccn1-c1cccc(CNC(=O)[C@@]2(O)CCN(c3ccccc3)C2=O)c1 [A9]
< 5.00	CC(C)(C)c1nc(CCNC(=O)[C@@]2(O)CCN(c3ccccc3)C2=O)no1 [A10]
< 5.00	O=C(NCCc1noc(C2CCCC2)n1)[C@@]1(O)CCN(c2ccccc2)C1=O [A12]
< 5.00	CCc1nnnn1CCNC(=O)[C@@]1(O)CCN(c2ccccc2)C1=O [A13]
< 5.00	Cc1nnc(CCNC(=O)[C@@]2(O)CCN(c3ccccc3)C2=O)s1 [A14]
< 5.00	O=C(NCCc1nnc(C(F)(F)F)o1)[C@@]1(O)CCN(c2ccccc2)C1=O [A15]
5.00 to 6.00	Cc1nc(CCNC(=O)[C@@]2(O)CCN(c3ccccc3)C2=O)cs1 [A16]
6.00 to 8.00	O=C(NCCc1nccs1)[C@@]1(O)CCN(c2ccccc2)C1=O [A17]
5.00 to 6.00	Cc1ccn(CCNC(=O)[C@@]2(O)CCN(c3ccccc3)C2=O)n1 [A19]
6.00 to 8.00	O=C(NCc1cccc(Cl)c1F)[C@@]1(O)CCN(c2ccccc2)C1=O [A20]
6.00 to 8.00	O=C(NCc1c(F)ccc(Cl)c1F)[C@@]1(O)CCN(c2ccccc2)C1=O [A21]
6.00 to 8.00	O=C(NCc1cc(Br)ccc1F)[C@@]1(O)CCN(c2ccccc2)C1=O [A22]
6.00 to 8.00	O=C(NCc1ccc(F)c(Br)c1)[C@@]1(O)CCN(c2ccccc2)C1=O [A23]
5.00 to 6.00	O=C(NCc1cccnc1)[C@@]1(O)CCN(c2ccccc2)C1=O [A24]
< 5.00	O=C(NCc1cccc(N2CCCC2)n1)[C@@]1(O)CCN(c2ccccc2)C1=O [A25]
< 5.00	O=C(NCc1ccccn1)[C@@]1(O)CCN(c2ccccc2)C1=O [A26]
6.00 to 8.00	O=C(NCc1cccc(C(F)(F)F)c1)[C@@]1(O)CCN(c2ccccc2)C1=O [A28]
6.00 to 8.00	O=C(NCc1cccc(Br)c1)[C@@]1(O)CCN(c2ccc(Br)cc2)C1=O [A29]

pIC50	SMILES
6.00 to 8.00	O=C(NCCc1cccs1)[C@@]1(O)CCN(c2ccc(Br)cc2)C1=O [A30]
6.00 to 8.00	O=C(NCCc1cccs1)[C@@]1(O)CCN(c2ccc(F)cc2F)C1=O [A31]
6.00 to 8.00	O=C(NCCc1cccs1)[C@@]1(O)CCN(c2ccc(F)cc2)C1=O [A32]
< 5.00	CC(C)(C)c1noc(CCNC(=O)[C@@]2(O)CCN(c3ccccc3)C2=O)n1 [A34]
< 5.00	CCc1nnc(CCNC(=O)[C@@]2(O)CCN(c3ccccc3)C2=O)s1 [A35]
5.00 to 6.00	O=C(NCc1cccc(-c2nccs2)c1)[C@@]1(O)CCN(c2ccccc2)C1=O [A36]
6.00 to 8.00	O=C(NCCc1cccs1)[C@@]1(O)CCN(c2cccc(Cl)c2)C1=O [A37, (S)-1-(3-chlorophenyl)-3-hydroxy-2-oxopyrrolidine-3-carboxylic acid (2-thiophen-2-ylethyl)amide]
6.00 to 8.00	O=C(NCc1cccc(Br)c1)[C@@]1(O)CCN(c2ccc(F)cc2)C1=O [A38]
< 5.00	O=C(NCc1cccc(Br)c1)[C@@]1(Cl)CCN(c2ccccc2)C1=O [A39]
6.00 to 8.00	O=C(NCCc1cccs1)[C@]1(O)CCN(c2cccc(Cl)c2)C1=O [A40]
5.00 to 6.00	O=C(NCc1cccc(Br)c1)[C@]1(O)CCN(c2ccc(F)cc2)C1=O [A41]
< 5.00	CCc1nnn(CCNC(=O)[C@]2(O)CCN(c3ccccc3)C2=O)n1 [A42]
< 5.00	O=C(NCc1cccc(Br)c1)[C@]1(Cl)CCN(c2ccccc2)C1=O [A43]
5.00 to 6.00	O=C(NCCn1cccn1)[C@@]1(O)CCN(c2ccccc2)C1=O [A44]
< 5.00	O=C(NCCN1CCCC1)[C@@]1(O)CCN(c2ccccc2)C1=O [A45]
6.00 to 8.00	O=C(NCc1ccc(F)c(Cl)c1F)[C@@]1(O)CCN(c2ccccc2)C1=O [A46]
6.00 to 8.00	O=C(NCc1ccc(F)c(Cl)c1)[C@@]1(O)CCN(c2ccccc2)C1=O [A47]
6.00 to 8.00	O=C(NCc1cc(Cl)ccc1F)[C@@]1(O)CCN(c2ccccc2)C1=O [A49]
6.00 to 8.00	O=C(NCc1cccc(Br)c1)[C@@]1(O)CCN(c2ccc(F)c(Cl)c2)C1=O [A50]
6.00 to 8.00	O=C(NCCc1cccs1)[C@@]1(O)CCN(c2ccc(F)c(Cl)c2)C1=O [A51]
6.00 to 8.00	O=C(NCc1cccc(Br)c1)[C@@]1(O)CCN(c2ccc(F)cc2F)C1=O [A52]
< 5.00	O=C(NCc1cccc(Br)c1)[C@]1(O)CCN(c2cccc3ccccc23)C1=O [A53]
6.00 to 8.00	O=C(NCc1cccc(Br)c1)[C@@]1(O)CCN(c2ccc3ccccc3c2)C1=O [A54]

pIC50	SMILES
6.00 to 8.00	O=C(NCCc1cccs1)[C@@]1(O)CCN(c2ccc3ccccc3c2)C1=O [A55]
6.00 to 8.00	O=C(NCc1cccc(Cl)c1F)[C@@]1(O)CCN(c2ccc(F)c(Cl)c2)C1=O [A56]
6.00 to 8.00	O=C(NCc1cccc(Cl)c1F)[C@@]1(O)CCN(c2cccc(Cl)c2)C1=O [A57]
6.00 to 8.00	O=C(NCc1cccc(Cl)c1F)[C@@]1(O)CCN(c2ccc(F)cc2)C1=O [A58]
< 5.00	O=C(NCc1nc2ccccc2s1)[C@@]1(O)CCN(c2ccccc2)C1=O [A60]
< 5.00	O=C(NCCc1cccs1)[C@@]1(Cl)CCN(c2ccccc2)C1=O [A61]
6.00 to 8.00	O=C(NCc1ccco1)[C@@]1(O)CCN(c2ccccc2)C1=O [A62]
6.00 to 8.00	CC(C)CCNC(=O)C1(O)CCN(c2ccccc2)C1=O (centres unmarked) [A63]
5.00 to 6.00	O=C(NCc1ccco1)C1(O)CCN(c2ccccc2)C1=O (centres unmarked) [A64]
5.00 to 6.00	O=C(NCc1cccc(Cl)c1F)[C@]1(O)CCN(c2ccc(F)cc2)C1=O [A67]
5.00 to 6.00	O=C(NCc1cccc(Cl)c1F)[C@]1(O)CCN(c2cccc(Cl)c2)C1=O [A68]
6.00 to 8.00	O=C(NCCc1cccs1)[C@]1(O)CCN(c2ccc3ccccc3c2)C1=O [A69]
< 5.00	O=C(NCc1cccc(Br)c1)[C@]1(O)CCN(c2ccc3ccccc3c2)C1=O [A70]
6.00 to 8.00	O=C(NCc1cccc(Br)c1)[C@@]1(O)CCN(c2cccc3ccccc23)C1=O [A71]
< 5.00	O=C(NCc1cccc(Br)c1)[C@]1(O)CCN(c2ccc(F)cc2F)C1=O [A72]
5.00 to 6.00	O=C(NCc1cccc(Br)c1)[C@]1(O)CCN(c2ccc(F)c(Cl)c2)C1=O [A73]
< 5.00	O=C(NCc1ccc(F)c(Cl)c1)[C@]1(O)CCN(c2ccccc2)C1=O [A74]
< 5.00	O=C(NCc1cccc(Br)c1)[C@]1(O)CCN(c2ccc(Br)cc2)C1=O [A76]
5.00 to 6.00	O=C(NCCc1cccs1)[C@]1(O)CCN(c2ccc(Br)cc2)C1=O [A77]
5.00 to 6.00	O=C(NCCc1cccs1)[C@]1(O)CCN(c2ccc(F)cc2)C1=O [A78]
< 5.00	O=C(NCc1cccc(Br)c1)[C@]1(O)CCN(c2ccccc2)C1=O [A79]
6.00 to 8.00	O=C(NCc1cc(F)cc(C(F)(F)F)c1)[C@@]1(O)CCN(c2ccc(F)cc2)C1=O [A162]
< 5.00	O=C(NCc1cc(C(F)(F)F)cc(C(F)(F)F)c1)[C@@]1(O)CCN(c2ccc(F)cc2)C1=O [A163]

pIC50	SMILES
6.00 to 8.00	O=C(NCc1cc(F)cc(C(F)(F)F)c1)[C@@]1(O)CCN(c2ccccc2)C1=O [A164]
< 5.00	O=C(NCc1cc(C(F)(F)F)cc(C(F)(F)F)c1)[C@@]1(O)CCN(c2ccccc2)C1=O [A165]
6.00 to 8.00	Cn1cc(N2CC[C@](O)(C(=O)NCc3cccc(Cl)c3F)C2=O)cn1 [A170]
5.00 to 6.00	COCCN1CC[C@](O)(C(=O)NCc2cc(F)cc(F)c2)C1=O [A171]
6.00 to 8.00	O=C(NCc1cc(F)cc(Cl)c1)[C@@]1(O)CCN(C2CCCCC2)C1=O [A173]
6.00 to 8.00	Cc1ccc(N2CC[C@](O)(C(=O)NCc3cc(F)cc(Cl)c3)C2=O)cn1 [A181]
6.00 to 8.00	CC(C)n1cc(N2CC[C@](O)(C(=O)NCc3cccc(Cl)c3F)C2=O)cn1 [A200]
6.00 to 8.00	CCn1cc(N2CC[C@](O)(C(=O)NCc3cc(F)cc(F)c3)C2=O)cn1 [A211]
6.00 to 8.00	N#Cc1cccc(CNC(=O)[C@@]2(O)CCN(c3ccccc3)C2=O)c1 [A215]
5.00 to 6.00	O=C(NCCc1cc(F)cc(Cl)c1)[C@]1(O)CCN(c2cccc(C(F)(F)F)c2)C1=O [A220]
6.00 to 8.00	O=C(NCCc1cc(F)cc(Cl)c1)[C@@]1(O)CCN(c2ccc(C(F)(F)F)cc2)C1=O [A233]
6.00 to 8.00	CC(C)n1cc(N2CC[C@](O)(C(=O)NCCc3cc(F)cc(Cl)c3)C2=O)cn1 [A240]
6.00 to 8.00	CS(=O)(=O)N1CCc2cc(N3CCC(O)(C(=O)NCc4cc(F)cc(Cl)c4)C3=O)ccc21 (centres unmarked) [A253]
6.00 to 8.00	CS(=O)(=O)c1ccc(N2CC[C@](O)(C(=O)NCc3cc(F)cc(Cl)c3)C2=O)cc1 [A260]
6.00 to 8.00	CC(=O)N1CCc2cc(N3CCC(O)(C(=O)NCCc4cc(F)cc(Cl)c4)C3=O)ccc21 (centres unmarked) [A261]
6.00 to 8.00	Cc1nnc(-c2ccc(N3CC[C@](O)(C(=O)NCc4cc(F)cc(Cl)c4)C3=O)cc2)o1 [A267]
6.00 to 8.00	O=C(NCc1cc(F)cc(Cl)c1)C1(O)CCN(c2ccc3c(cnn3C3CCCCO3)c2)C1=O (centres unmarked) [A279]
6.00 to 8.00	O=CN1CCc2cc(N3CC[C@](O)(C(=O)NCc4cc(F)cc(Cl)c4)C3=O)ccc21 [A282]
< 5.00	O=CN1CCc2cc(N3CC[C@@](O)(C(=O)NCc4cc(F)cc(Cl)c4)C3=O)ccc21 [A285]
6.00 to 8.00	COC(=O)N1CCc2cc(N3CCC(O)(C(=O)NCc4cc(F)cc(Cl)c4)C3=O)ccc21 (centres unmarked) [A286]
